{"source": "patent US20090012152A1", "about": "“Use of Tetramic Acid Derivatives for Controlling Insects from the Genus of the Plane Lice (Sternorrhyncha)” (Bayer CropScience Aktiengesellschaft, priority 2005, published 2009)", "format_in_all_cases": "in vivo", "key": {"Macrosiphum euphorbiae": {"tested_on": "Macrosiphum euphorbiae", "experiment": "Example 43: aubergines treated against Macrosiphum euphorbiae", "settings": "nymphs on leaves, % a.i.: imidacloprid 0.014, I-9, I-2, I-11 0.0144", "experimental": "In three replications, plots of a size of 10 m^2 with aubergines of the cultivar “F 100” are treated against Macrosiphum euphorbiae. The application is carried out using a knapsack sprayer operated with pressurized air. Here, the active compounds Example (I-9) (60 SC), Example (I-2) (60 SC) and Example (I-11) (60 SC) and the commercial standard imidacloprid (70 WG) are tested at the stated application rates. Three applications are carried out, at an interval of 7 or 8 days. The application rate is 1000 l of water/ha.\nEvaluation is carried out 7 and 14 days after the second treatment by rating the kill of the nymphs on the leaves."}, "Bemisia tabaci": {"tested_on": "Bemisia tabaci", "experiment": "Example 32: bell peppers treated against Bemisia tabaci", "settings": "larvae on leaves, % a.i.: imidacloprid 0.02, I-9, I-2, I-11 0.0144", "experimental": "In three replications, plots of a size of 10 m^2 with bell peppers of the cultivar “Italiano” are treated against Bemisia tabaci. The application is carried out using a motor-operated knapsack sprayer. Here, the active compounds Example (I-9) (240 SC), Example (I-2) (60 SC) and Example (I-11) (60 SC) and the commercial standard imidacloprid (200 SL) are applied at the stated application rates. Three applications at an interval of 14 or 15 days are carried out, at an application rate of 1000 or 1100 l of water/ha.\nEvaluation is carried out 7, 14 and 22 days after the second treatment by rating the kill of the animals (larvae) on the leaves."}, "Bemisia argentifolii": {"tested_on": "Bemisia argentifolii", "experiment": "Example 35: aubergines (F 100) treated against Bemisia argentifolii", "settings": "7 d after last of three treatments, nymphs on leaves, % a.i.: imidacloprid 0.014, I-9, I-2, I-11 0.0144", "experimental": "In three replications, plots of a size of 10 m^2 with aubergines of the cultivar “F 100” are treated against Bemisia argentifolii. The application is carried out using a knapsack sprayer operated with pressurized air. Here, the active compounds Example (I-9) (60 SC), Example (I-2) (60 SC) and Example (I-11) (60 SC) and the commercial standard imidacloprid (70 WG) are tested at the stated application rates. Three applications are carried out, at an interval or 7 or 8 days. The application rate is 1000 l of water/ha.\nEvaluation is carried out 7 days after the last treatment by rating the kill of the nymphs on the leaves."}, "Saissetia oleae [1]": {"tested_on": "Saissetia oleae", "experiment": "Example 13: orange trees treated against Saissetia oleae", "settings": "nymphs on leaves, g a.i./ha/m crown height: buprofezin 500, I-4 72, I-8 30", "experimental": "In three replications, in each case two about 8-year-old orange trees are treated against Saissetia oleae. Here, the active compounds Example (I-4) (240 SC) and Example (I-8) (250 SC) in a tank mix with 0.2% a.i. of rapeseed oil methyl ester (500 EW) at the stated application rate are tested against the commercial standard buprofezin in a tank mix with 0.4% a.i. of Oliocin (800 EW) at the stated application rate. The application is carried out using a motor-operated knapsack sprayer. The application rate is 3000 l of water/ha. Two treatments are carried out, at an interval of 29 days.\nEvaluation is carried out 24 and 44 days after the last treatment by rating the kill of the nymphs on the leaves."}, "Ceroplastes rubens": {"tested_on": "Ceroplastes rubens", "experiment": "Example 12: satsuma trees treated against Ceroplastes rubens", "settings": "41 days after treatment; live animals counted, Henderson and Tilton; satsuma tree; % a.i.: buprofezin 0.025, I-4 0.0072", "experimental": "In three replications, in each case one about 4-year-old satsuma tree of the cultivar “Nankan 20” is treated against Ceroplastes rubens. Here, the active compound Example (I-4) (240 SC) in a tank mix with 0.1% of rapeseed oil methyl ester (500 EW) at the stated application rate is tested against the commercial standard buprofezin (25 WP) at the stated application rate. The application is carried out using a motor-operated knapsack sprayer. Here, treatment is carried out using an application rate of 400 l of water/ha.\n(§1) Evaluation is carried out before and 41 days after the treatment by counting the live animals. The efficacy in percent is then calculated according to Henderson and Tilton."}, "Pulvinaria aurantii": {"tested_on": "Pulvinaria aurantii", "experiment": "Example 11: satsuma trees treated against Pulvinaria aurantii", "settings": "41 days after treatment; live animals counted, Henderson and Tilton; satsuma tree; % a.i.: buprofezin 0.025, I-4 0.0144", "experimental": "In three replications, in each case one about 4-year-old satsuma tree of the cultivar “Nankan 20” is treated against Pulvinaria aurantii. Here, the active compound Example (I-4) (240 SC) in a tank mix with 0.2% of rapeseed oil methyl ester (500 EW) at the stated application rate is tested against the commercial standard buprofezin at the stated application rate. The application is carried out using a motor-operated knapsack sprayer. Here, each plant is treated with 400 ml of spray liquor.\nas §1"}, "[2]": {"tested_on": "Selenaspidius articulatus", "experiment": "Example 19: orange trees treated against Selenaspidius articulatus", "settings": "100 d after treatment, on leaves, % a.i.: methidathion 0.05, I-9 0.0288, I-4 0.0144", "experimental": "In three replications, 3-year-old orange trees of the cultivar “Pera natal” are treated against Selenaspidius articulatus. The application is carried out using a motor-operated knapsack sprayer. Here, the active compounds Example (I-9) (240 SC) and Example (I-4) (240 SC) at the stated application rate are tested against the standard methidathion (400 EC) in the stated amounts, applied once. The application rate is 3.3 l of water per tree.\nEvaluation is carried out 100 days after the treatment by rating the kill on the leaves."}, "Orthezia praelonga": {"tested_on": "Orthezia praelonga", "experiment": "Example 25: orange trees treated against Orthezia praelonga", "settings": "population on leaves, % a.i.: methidathion 0.05, I-4 0.0144, I-9 0.0144", "experimental": "In two replications, two about 7-year-old orange trees of the cultivar “Pera Rio” are treated against Orthezia praelonga. Here, the active compounds Example (I-4) (240 SC) and Example (I-9) (240 SC), in a tank mix with 0.1% a.i. of Renex, are tested against the commercial standard Methidathion (400 EC), at the stated application rates. The application is carried out using a knapsack sprayer operated with pressurized air. Evaluation is carried out 6 and 16 days after the treatment by rating the kill of the population on the leaves."}, "Saissetia oleae [3]": {"tested_on": "Saissetia oleae", "experiment": "Example 14: orange trees (Navelina) treated against Saissetia oleae", "settings": "120 d after treatment, kill on branches, % a.i.: Dursban 0.096, I-4 0.012, I-9 0.0054, pyriproxyfen 0.005", "experimental": "In three replications, orange trees of the cultivar “Navelina” are treated against Saissetia oleae. Here, the active compounds Example (I-4) (240 SC) and Example (I-9) (240 SC) in a tank mix with 0.1% of rapeseed oil methyl ester (500 EW) at the stated application rate are tested against the commercial standards Dursban (480 EC) and pyriproxyfen (100 EC) at the stated application rate. The application is carried out using a motor-operated knapsack sprayer. The application rate is 3200 l of water/ha.\nEvaluation is carried out 120 days after the treatment by rating the kill of the animals on the branches."}, "Lepidosaphes beckii": {"tested_on": "Lepidosaphes beckii", "experiment": "Example 18: citrus trees treated against Lepidosaphes beckii", "settings": "140 days after treatment, larvae on fruits, g a.i./ha/m crown height: pyriproxyfen 50, I-4 48", "experimental": "In three replications, in plots of a size of about 20 m^2, citrus trees of the cultivar “Oro Nules” are treated against Lepidosaphes beckii. The application is carried out using a high-pressure sprayer. Here, the active compound Example (I-4) (240 SC) in a tank mix with 0.1% a.i. of rapeseed oil methyl ester (500 EW) is tested against the commercial standard pyriproxyfen (100 EC), at the stated application rates. The application rate is 2500 l of water/ha.\nEvaluation is carried out 140 days after the treatment by rating the kill of the larvae on the fruits."}, "Parlatoria pergandei": {"tested_on": "Parlatoria pergandei", "experiment": "Example 27 / 18a: orange trees treated against Parlatoria pergandei", "settings": "73 d after last of two treatments, on fruits, % a.i.: pyriproxyfen 0.005, I-9 0.0096", "experimental": "The evaluation for Example 18a against Parlatoria pergandei is carried out as part of the test as described in Example 27 and is listed separately in Example 27.\n(§2) In three replications, orange trees of the cultivar “Navelina” are treated against Parlatoria pergandei and Pseudococcus citri. Two applications are carried out at an interval of 77 days using a motor-operated knapsack sprayer. Here, the active compound Example (I-9) (240 SC), in a tank mix with 0.1% a.i. of rapeseed oil methyl ester (500 EW), at the stated amount, is tested against the commercial standard pyriproxyfen (100 EC), at the stated amounts. The application rate is 3000 l of water/ha.\n(§3) Evaluation is carried out 56 days or 73 days after the last treatment by rating the kill in percent on the fruits."}, "Pseudococcus citri": {"tested_on": "Pseudococcus citri", "experiment": "Example 27: orange trees treated against Pseudococcus citri", "settings": "56 d after last of two treatments, on fruits, % a.i.: pyriproxyfen 0.005, I-9 0.0096", "experimental": "as §2, §3"}}, "data": [{"compound": "CCCC(=O)OC1=C(c2cc(C)c(C)cc2C)C(=O)NC12CCC(OCC)CC2", "note": "(centres unmarked) [Example (I-11)]", "values": [{"measurement": "Kill (%) 7 d", "setting": "Macrosiphum euphorbiae; 7 d after second treatment", "value": 98, "unit": "%"}, {"measurement": "Kill (%) 14 d", "setting": "Macrosiphum euphorbiae; 14 d after second treatment", "value": 99, "unit": "%"}, {"measurement": "Kill (%) 7 d", "setting": "Bemisia tabaci; 7 d after second treatment", "value": 85.4, "unit": "%"}, {"measurement": "Kill (%) 14 d", "setting": "Bemisia tabaci; 14 d after second treatment", "value": 93.3, "unit": "%"}, {"measurement": "Kill (%) 22 d", "setting": "Bemisia tabaci; 22 d after second treatment", "value": 91.3, "unit": "%"}, {"measurement": "Kill (%) 7 d", "setting": "Bemisia argentifolii", "value": 94, "unit": "%"}]}, {"compound": "CC(C)N1C(=O)N(c2ccccc2)CS/C1=N\\C(C)(C)C", "note": "[buprofezin, reference compound]", "values": [{"measurement": "Kill (%) 24 d", "setting": "Saissetia oleae [1]; 24 d after last of two treatments", "value": 33.5, "unit": "%"}, {"measurement": "Kill (%) 44 d", "setting": "Saissetia oleae [1]; 44 d after last of two treatments", "value": 50.5, "unit": "%"}, {"measurement": "Effect (%)", "setting": "Ceroplastes rubens", "value": 50, "unit": "%"}, {"measurement": "Effect (%)", "setting": "Pulvinaria aurantii", "value": 68, "unit": "%"}]}, {"compound": "COc1nn(CSP(=S)(OC)OC)c(=O)s1", "note": "[methidathion, reference compound]", "values": [{"measurement": "Kill (%) 100 d", "setting": "[2]", "value": 77, "unit": "%"}, {"measurement": "Kill (%) 6 d", "setting": "Orthezia praelonga; 6 d after treatment", "value": 91, "unit": "%"}, {"measurement": "Kill (%) 16 d", "setting": "Orthezia praelonga; 16 d after treatment", "value": 61, "unit": "%"}]}, {"compound": "CC(COc1ccc(Oc2ccccc2)cc1)Oc1ccccn1", "note": "(centres unmarked) [pyriproxyfen, reference compound]", "values": [{"measurement": "Effect (%) 120 d", "setting": "Saissetia oleae [3]", "value": 100, "unit": "%"}, {"measurement": "Kill (%) 140 days", "setting": "Lepidosaphes beckii", "value": 100, "unit": "%"}, {"measurement": "Kill (%) 73 d", "setting": "Parlatoria pergandei", "value": 97.5, "unit": "%"}, {"measurement": "Kill (%) 56 d", "setting": "Pseudococcus citri", "value": 28.8, "unit": "%"}]}]}
